# “Also recorded” adds a separate entry of the source.
# Experiments:
# Male Sprague-Dawley rats [1] = assay: Example 1: body weight gain and nitrogen retention in dexamethasone-infused rats, 8-day subcutaneous mini-pump infusion; type: in vivo, rat; conditions: 8 days
# Procedure: On day zero the rats were anaesthetized intraperitoneally with 0.4 ml per 100 g body weight of a mixture of Rompun (20 mg.ml^-1), Ketalar (50 mg.ml^-1) and Saline (0.9%) in 1:2:3 volume proportions. The hair on the back of the rats was shaved off and the exposed skin carefully washed with 0.05% chlorhexidine (Pharmacia, Stockholm, Sweden) and 0.4 % jodopax (Molnlycke, Goteborg, Sweden), both being diluted in 70% alcohol. Two mutually parallel incisions, each of 15 mm in length, were then made along the dorsal midline. The incisions penetrated the epidermis, dermis and subcutaneous muscle but left the deep fascia intact. Two subcutaneous pockets were made on both sides of the incisions by separating the subcutaneous muscle from the deep fascia. One (Exp. I) or two (Exp. 2) mini-pumps were implanted in each pocket. The wounds were closed with sutures 4-0 (Johnson & Johnson). Osmotic mini-pumps (Alzet 2001, Alza Corporation, Palo Alto, USA) releasing 1 μl.h^-1 for 8 days were used for continuous delivery of hormones and Dex to the animals. The pumps were filled to a volume of 0.22 ml with solutions of rhGH (14.4 mg.ml^-1, Genotropin®, Pharmacia), […] (20 mg.ml^-1, Igef®, Pharmacia, Kabi Peptide Hormones, Stockholm, Sweden), insulin (1.57 mg/ml, Actrapid®, Novo, Copenhagen, Denmark), Dex (1.04 mg.ml^-1, Decadron, Merck Sharp & Dohme International, […], USA) or Saline (0.9%). Two (Example 1) or four (Example 2) pumps combined as described above were implanted in each rat. Implantation of the pumps was performed under strictly aseptic conditions. Total feed intake was registered throughout the full 8 day experimental period. Urine and faeces were collected daily, pooled and kept at -20° C. until analysed. Excreta was collected by housing the animals in individual metabolism cages that were specially designed for the separation of urine and faeces. In order to inhibit urease-activity in the urine, 1 ml of 5% sulphuric acid was pipetted every morning in the collection vessels. The 24 hour collections of urine were pooled individually for each treatment period and immediately frozen after the collection. Similarly, the samples of faeces were also pooled individually for each treatment period and kept frozen (-20° C.) until analysis. Urea in serum was determined spectrophotometrically by using the Urea UV Uni-Kit I (Roche) with an autoanalyzer (Cobas Mira, Roche Co, Basel, Switzerland). Urea values were expressed in mmol/l. The total nitrogen content in urine was determined with the aid of the Antek Pyro-Chemiluminiscence Nitrogen System. The apparatus used comprised the […] nitrogen analyser with Liquid Auto Sampler 736-2 and a pyrolysis tube with a ceramic […] Instruments Inc., Houston, Tex., U.S.A.). The frozen urinary samples were thawed and diluted 1:100 with 0.1 M HCl and then analysed. The urinary nitrogen values were then calculated as mg nitrogen excreted. Total nitrogen in faeces was determined by an established Kjeldahl method (Kjeltec System, Tecator AB, Halsingborg, Sweden). The frozen faecal samples were thawed and dried in an oven at 60° C. overnight. The weight of the dried sample was noted and the sample then ground. 0.20 g of the milled faecal sample was mixed in a Kjeldahl digestion tube with 10.0 ml of concentrated sulphuric acid. 2.0 ml of a 30% solution of H202 (30% Perhydrol, Merck, Darmstadt, Germany) was added and mixed carefully. One catalyst tablet (Kjeltabs CA, Thompson & Capper, Runcom, Cheshire, UK) was added to each sample. The mixture was digested at […] for at least one hour or until complete bleaching of the sample was achieved. […] The faecal nitrogen values were calculated as mg nitrogen excreted. Data were subjected to a one-way analysis of variance in which the effect of treatment was considered the prime source of variation. Calculations were executed by the GLM procedure of the SAS program (SAS 1985). […]
# Male Sprague-Dawley rats [2] = assay: Example 2: feed intake, nitrogen digestibility and nitrogen retention in dexamethasone-infused rats, 8-day mini-pump infusion of peptide combinations; type: in vivo, rat; conditions: 8 days; for relative nitrogen retention (retained N/digested N×100): Dex 26 μg/day with saline or with insulin 39, rhGH 360, rhIGF-I 500 μg/day, mean, pooled SE, saline alone 38.7%; for nitrogen retention, effect compared with Dex without peptide: Dex 26 μg/day plus peptide
# Procedure: On day zero the rats were anaesthetized intraperitoneally with 0.4 ml per 100 g body weight of a mixture of Rompun (20 mg.ml^-1), Ketalar (50 mg.ml^-1) and Saline (0.9%) in 1:2:3 volume proportions. The hair on the back of the rats was shaved off and the exposed skin carefully washed with 0.05% chlorhexidine (Pharmacia, Stockholm, Sweden) and 0.4 % jodopax (Molnlycke, Goteborg, Sweden), both being diluted in 70% alcohol.
# Two mutually parallel incisions, each of 15 mm in length, were then made along the dorsal midline. The incisions penetrated the epidermis, dermis and subcutaneous muscle but left the deep fascia intact. Two subcutaneous pockets were made on both sides of the incisions by separating the subcutaneous muscle from the deep fascia. One (Exp. I) or two (Exp. 2) mini-pumps were implanted in each pocket. The wounds were closed with sutures 4-0 (Johnson & Johnson).
# Osmotic mini-pumps (Alzet 2001, Alza Corporation, Palo Alto, USA) releasing 1 μl.h^-1 for 8 days were used for continuous delivery of hormones and Dex to the animals. The pumps were filled to a volume of 0.22 ml with solutions of rhGH (14.4 mg.ml^-1, Genotropin®, Pharmacia), rhlGF-I (20 mg.ml^-1, Igef®, Pharmacia, Kabi Peptide Hormones, Stockholm, Sweden), insulin (1.57 mg/ml, Actrapid®, Novo, Copenhagen, Denmark), Dex (1.04 mg.ml^-1, Decadron, Merck Sharp & Dohme International, Rathway, USA) or Saline (0.9%). Two (Example 1) or four (Example 2) pumps combined as described above were implanted in each rat. Implantation of the pumps was performed under strictly aseptic conditions.
# Total feed intake was registered throughout the full 8 day experimental period. Urine and faeces were collected daily, pooled and kept at -20° C. until analysed. Excreta was collected by housing the animals in individual metabolism cages that were specially designed for the separation of urine and faeces. In order to inhibit urease-activity in the urine, 1 ml of 5% sulphuric acid was pipetted every morning in the collection vessels. The 24 hour collections of urine were pooled individually for each treatment period and immediately frozen after the collection. Similarly, the samples of faeces were also pooled individually for each treatment period and kept frozen (-20° C.) until analysis.
# Urea in serum was determined spectrophotometrically by using the Urea UV Uni-Kit I (Roche) with an autoanalyzer (Cobas Mira, Roche Co, Basel, Switzerland). Urea values were expressed in mmol/l. The total nitrogen content in urine was determined with the aid of the Antek Pyro-Chemiluminiscence Nitrogen System. The apparatus used comprised the Antek 7000N nitrogen analyser with Liquid Auto Sampler 736-2 and a pyrolysis tube with a ceramic liner (Antek Instruments Inc., Houston, Tex., U.S.A.). The frozen urinary samples were thawed and diluted 1:100 with 0.1 M HCl and then analysed. The urinary nitrogen values were then calculated as mg nitrogen excreted.
# Total nitrogen in faeces was determined by an established Kjeldahl method (Kjeltec System, Tecator AB, Halsingborg, Sweden). The frozen faecal samples were thawed and dried in an oven at 60° C. overnight. The weight of the dried sample was noted and the sample then ground. 0.20 g of the milled faecal sample was mixed in a Kjeldahl digestion tube with 10.0 ml of concentrated sulphuric acid. 2.0 ml of a 30% solution of H202 (30% Perhydrol, Merck, Darmstadt, Germany) was added and mixed carefully. One catalyst tablet (Kjeltabs CA, Thompson & Capper, Runcom, Cheshire, UK) was added to each sample. The mixture was digested at […] for at least one hour or until complete bleaching of the sample was achieved. The nitrogen content of this solution was determined after alkalinization by steam distillation of the ammonia and automated titration of the distillate. The faecal nitrogen values were calculated as mg nitrogen excreted.
# Data were subjected to a one-way analysis of variance in which the effect of treatment was considered the prime source of variation.
# [3] = Dex 26, 13 or 6.5 μg/day (every Dex dose), rhGH 360 μg/day or rhIGF-I 500 μg/day s.c. mini-pump, compared with saline
Compound,"body weight gain, effect of Dex dose (Male Sprague-Dawley rats [1]; Dex 6.5, 13, 26 μg/day)",relative nitrogen retention (retained N/digested N×100) (Male Sprague-Dawley rats [2]) [%],reduction of feed intake (Male Sprague-Dawley rats [2]; Dex 26 μg/day),"nitrogen retention, effect compared with Dex without peptide (Male Sprague-Dawley rats [2])",body weight gain (Male Sprague-Dawley rats [1]; [3]),"body weight gain (Male Sprague-Dawley rats [1]; Dex 26, 13 or 6.5 μg/day (every Dex dose), rhGH 360 μg/day or rhIGF-I 500 μg/day s.c. mini-pump, compared with saline, listed as hGH)","body weight gain (Male Sprague-Dawley rats [1]; medium and high Dex infusion dose (13 and 26 μg/day), rhGH 360 μg/day)","retention of nitrogen (Male Sprague-Dawley rats [1]; Dex 26, 13 or 6.5 μg/day, rhIGF-I 500 μg/day, compared with saline and rhGH)"
"C[C@@H]1C[C@H]2[C@@H]3CCC4=CC(=O)C=C[C@]4(C)[C@@]3(F)[C@@H](O)C[C@]2(C)[C@@]1(O)C(=O)CO [Dex, dexamethasone, reference compound]",general decrease with increased Dex dose,7.2,approximately 20%,,,,,
insulin,,11.9,,without effect,,,,
recombinant human growth hormone [rhGH],,3.8,,without effect,opposite effect,opposite effect (p<0.05),negative values for body weight gain,
recombinant human insulin-like growth factor I [rhIGF-I],,23.0,,,significantly (p<0.05) higher weight gain in comparison with saline; also recorded: significantly (p<0.05) increased,,,significantly (p<0.05) higher

# Reference: patent publication US5756463A, “Use of insulin and IGF-1” (Pharmacia & Upjohn AB, priority 1994, dated 1998)
